Source: patent US12345641B2, “Fluorescence quenching immunoassay” (IDEXX Laboratories, Inc., priority 2020, dated 2025)

Assays:
antibody to SDMA = test: Fluorescence decrease of tracer A3 on complexing with anti-SDMA antibody conjugated to BHQ10 (FIG. 23); format: binding
Source text: The decrease in fluorescence of a fluorescent tracer when it forms a complex with a binding partner that is conjugated to a quencher is a function of the equivalents of quencher molecules that are conjugated to the binding partner. The more quencher molecules conjugated to the binding partner, the greater the decrease in fluorescence. This is depicted in FIG. 23 as a plot of fluorescence vs. ratio of antibody:fluorescent tracer for antibody that is conjugated to 2, 4, 6, and 8 BHQ10 quencher molecules.

[1] = Absorption and emission spectra of fluoresceins and SDMA conjugates (Example 33); format: physicochemical; conditions: PBS buffer
Source text: The maximum absorption of fluorescein (Fl) in PBS buffer is at 489 nm and the maximum fluorescence emission is at 515 nm. When the fluorescein molecule is conjugated with an SDMA molecule via a —CH2NH— linker (i.e., to provide SDMA-Fl), its maximum absorption and emission are shifted to 495 nm and 525 nm, respectively. When the fluorescein molecule is substituted by fluorine at the 2′ and 7′ positions (i.e., to provide DFF) there is no any change in the maximum absorption and emission compared to unsubstituted fluorescein. When the fluorescein molecule is substituted by chloride at the 2′ and 7′ positions (i.e., to provide DCF) the maximum absorption and emission are red-shifted to 500 nm and 525 nm, respectively. Also conjugating DFF or DCF to SDMA via a —CH2NH— linker (i.e., to provide SDMA-DFF and SDMA DCF, respectively) results in the maximum absorption and emission being red-shifted. The maximum absorption and emission wavelengths of fluorescein (FL), 2′,7′-difluorofluorescien (DFF), 2′,7′-dichlorofluorescien (DCF), and their conjugates with SDMA via a —CH2NH— linker (i.e., SDMA-Fl (i.e., structure A3), SDMA-DFF, and SDMA-DCF) are listed in the Table provided below. The absorption spectra of DFF, SDMA-DFF, DCF, SDMA-DCF, Fl, and SDMA-FL are depicted in FIG. 25A and the emission spectra of SDMA-DFF, SDMA-DCF, Fl, and SDMA-FL are depicted in FIG. 25B.

anti-SDMA antibody = test: Fluorescence quenching of SDMA tracers by anti-SDMA antibody or antibody-BHQ10 (Example 34); format: binding; conditions: for fluorescence quenched by adding anti-SDMA antibody: antibody not conjugated to a quencher
Protocol: Solutions of anti-SDMA antibody or anti-SDMA antibody conjugated to BHQ10 (4 eq.) in phosphate buffered saline (PBS) were prepared at concentrations of 0, 0.25, 0.5, 1, 2, 4, 8, and 16 μM (antibody solution). Solutions of an SDMA fluorescent tracer (i.e., SDMA-Fl, SDMA-DFF, or SDMA-DCF) in PBS were prepared at a concentration of 100 nM (tracer solution). 50 μL of antibody solution and 50 μL of tracer solution were combined on a 96-well UV plate and incubated for 30 min. at room temperature. […] The results are depicted in FIGS. 26 and 27.

[2] = test system: anti-penicillin polyclonal antibody; test: Fluorescence of beta lactam-fluorescein conjugates with anti-penicillin antibody (Example 25); format: binding; conditions: tracer and antibody 200 nM
Protocol: Beta lactam antibiotics conjugated to fluorescein (i.e., AMO-FITC, AMO-F, AMP-F, and CEF-F) in PBS (400 nM, 100 μL) were mixed with either anti-penicillin or anti-cefotaxime polyclonal antibody (400 nM, 100 μL, commercially available from Novus Biologicals, LLC of Centennial, CO) in the absence of and in the presence of free beta-lactam antibiotic (ampicillin (400 nM) was added to AMP-F and cefotaxime (400 nM) was added to CEF-F) in a 96 well black assay plate. […] The solutions were incubated at room temperature for 5 min and the fluorescence intensity measured.

[3] = test system: Cy5 conjugated antibody (Ab-Cy5, anti-T4-Mab); test: Fluorescence quenching of T4-F by Ab-Cy5 (Example 23); format: binding
Protocol: T4-F was dissolved in DMSO (1 mM) and diluted with PBS to provide a stock solution (4 μM). A series of PBS solutions of Cy5 conjugated antibody (Ab-Cy5, made as in Example 12) having Ab-Cy5 concentrations ranging from 0 to 400 nM were prepared by serial dilution. In the wells of a 96 well black assay plate was combined T4-F in PBS (5 μL) and a serially diluted Ab-Cy5 solution (95 μL) and the plate shaken for 30 min at room temperature.

[4] = test system: anti-sulfadimethoxine monoclonal antibody; test: Fluorescence of SDM-F or SDM-Su-F with anti-sulfadimethoxine monoclonal antibody (Example 26); format: binding
Protocol: SDM-F or SDM-Su-F in PBS (400 nM, 100 μL) was mixed with anti-sulfadimethoxine monoclonal antibody (400 nM, 100 μL, commercially available from Genway Biotech of San Diego, CA) in the absence of and the presence of sulfadimethoxine (SDM) (400 nM). The resulting solutions were incubated at room temperature for 5 min and the fluorescence intensity then measured.

anti-T4 antibody = test: Maximum percentage fluorescence quenching of T2-F, T3-F, T4-F by anti-T4 antibody with and without quencher label (Example 27 table); format: binding
Protocol: In another experiment, tracer T2-F, T3-F, or T4-F was dissolved in DMSO to provide a DMSO solution at a tracer concentration of 1 mM. The DMSO solution was then diluted with phosphate buffered saline (“PBS”) to provide a stock solution of each tracer at a concentration of 10 μM. Monoclonal anti-T4-Mab or anti-T4-Mab conjugated to a quencher (Cy3-Ab, IRdyeQC1-Ab, Cy5-Ab, BHQ1-Ab) were serially diluted in PBS to provide solutions having an Anti-T4-Mab or anti-T4-Mab conjugated to quencher at concentration ranging from 0 to 2 μM. In a 96 well black assay plate containing the serially diluted Anti-T4-Mab or anti-T4-Mab conjugated to quencher (95 μL) was added the tracer T2-F, T3-F, or T4-F solution (5 μL), mixed well, and incubated for 30 min and the fluorescence intensities then recorded at an excitation wavelength of 485 nm and an emission wavelength of 520 nm. The results of maximum percentage fluorescence quenching for different tracers and quencher-modified antibodies are provided in the following Table: […]

[5] = test system: Monoclonal anti-NT-proBNP antibody (ADX-15 Mab); test: Fluorescence quenching of canine NT-proBNP peptide-Fl/DFF conjugates by anti-NT-proBNP Mab and Ab-BHQ10 (Example 52); format: binding; conditions: No = No Quenching
Protocol: NT-proBNP peptide-fluorescein (Fl) or -difluorofluorescein (DFF) conjugates were dissolved in DMSO (0.4 mM) and diluted with PBS to provide a stock solution (100 nM). Monoclonal anti-NT-proBNP antibody (ADX-15 Mab, IDEXX Laboratories Inc. of Westbrook, ME) (6.84 mg/ml) was serially diluted in PBS buffer to provide solutions having an antibody concentration ranging from 0 to 800 nM in PBS. In a 96 well black assay plate containing the serially diluted antibody solution (50 μL) was added the P1-Fl or P1-DFF, or other peptide-Fl or Peptide-DFF solution (50 μL), mixed well, incubated for 30 min and the fluorescence intensities recorded (excitation at 485 nm and emission at 520 nm). The results are provided in FIG. 47, FIG. 48, and Table 2.

anti-NT-proBNP-Mab = test: Canine NT-proBNP peptide P1 dose response in PBS and serum (Example 52); format: binding
Protocol: A mixture of NT-proBNP P1-Fl or P1-DFF in PBS (100 nM, 25 μL) and anti-NT-proBNP-Mab in PBS (100 nM, […]) were incubated at room temperature for 30 min in the wells of a 96 well black assay plate. A series of NT-proBNP peptide P1 standard solutions in PBS or charcoal stripped serum having peptide or protein concentrations ranging from 0 to 320 nM (50 μL) were then added to the mixtures of P1-Fl or P1-DFF and anti-NT-proBNP Mab in PBS. The plate was then incubated for 30 min at room temperature and the fluorescence intensities recorded at excitation at 485 nm and emission at 520 nm. The results are shown in FIG. 49, FIG. 50, FIG. 51, and FIG. 52.

anti-NT-proBNP Mab = test: Canine NT-proBNP full length protein dose response (Example 52); format: binding
Protocol: A mixture of NT-proBNP P1-Fl or P1-DFF in PBS (200 nM, 10 μL) and anti-NT-proBNP Mab in PBS (200 nM, 10 μL) were incubated at room temperature for 30 min in the wells of a 96 well black assay plate. A series of NT-proBNP peptide P1 standard solutions in PBS having NT-proBNP full length protein (lyophilized powder synthesized by New England Biolabs of Ipswich, MA) at concentrations ranging from 0 to 320 nM (80 μL) were then added to the mixtures of P1-Fl or P1-DFF and anti-NT-proBNP Mab in PBS. The plate was then incubated for 30 min at room temperature and the fluorescence intensities recorded at an excitation of 485 nm and an emission of 520 nm.

C/N=C(\NC)NCCC[C@@H](N)C(=O)NCc1c(O)ccc2c(-c3ccccc3C(=O)O)c3ccc(=O)cc-3oc12 (stereo in doubt) [SDMA-Fl]
maximum decrease in fluorescence (antibody to SDMA; antibody conjugated to 2 equivalents of BHQ10): about 50% | maximum decrease in fluorescence (antibody to SDMA; antibody conjugated to 8 equivalents of BHQ10): about 70% | Max Absorption [1]: 495 nm | Max Emision [1]: 525 nm | fluorescence quenched by adding anti-SDMA antibody (anti-SDMA antibody): about 30%

CC1(C)SC2C(NC(=O)C(NCc3c(O)ccc4c(-c5ccccc5C(=O)O)c5ccc(=O)cc-5oc34)c3ccc(O)cc3)C(=O)N2C1C(=O)O (stereo not shown) [AMO-F, Amoxicillin-Fluorescein]
fluorescence quenching by anti-penicillin antibody [2]: quenched

CC1(C)SC2C(NC(=O)C(NC(=S)Nc3ccc(-c4c5ccc(=O)cc-5oc5cc(O)ccc45)c(C(=O)O)c3)c3ccc(O)cc3)C(=O)N2C1C(=O)O (stereo not shown) [AMO-FITC]
fluorescence quenching by anti-penicillin antibody [2]: not quenched

CC1(C)SC2C(NC(=O)C(NCc3c(O)ccc4c(-c5ccccc5C(=O)O)c5ccc(=O)cc-5oc34)c3ccccc3)C(=O)N2C1C(=O)O (stereo not shown) [AMP-F, Ampicillin-Fluorescein]
fluorescence quenching by anti-penicillin antibody [2]: quenched

CCN1/C(=C/C=C/C=C/C2=[N+](CCCCCC(=O)O)c3ccc(S(=O)(=O)O)cc3C2(C)C)C(C)(C)c2cc(S(=O)(=O)[O-])ccc21 [Cy5, reference compound]
quenching of T4-F fluorescence by Cy5 alone (not conjugated to Anti-T4-Mab) [3]: did not quench fluorescence

COc1cc(NS(=O)(=O)c2ccc(NCc3c(O)ccc4c(-c5ccccc5C(=O)O)c5ccc(=O)cc-5oc34)cc2)nc(OC)n1 [SDM-F, Sulfadimethoxine-Fluorescein]
amount of quenching compared to SDM-Su-F [4]: greater amount of quenching | fluorescence quenching by anti-sulfadimethoxine monoclonal antibody [4]: quenched

COc1cc(NS(=O)(=O)c2ccc(NC(=O)CCC(=O)NCc3c(O)ccc4c(-c5ccccc5C(=O)O)c5ccc(=O)cc-5oc34)cc2)nc(OC)n1 [SDM-Su-F, Sulfadimethoxine-Succinic-Fluorescein]
fluorescence quenching by anti-sulfadimethoxine monoclonal antibody [4]: quenched

CNC(=NCCCC(N)C(=O)NCc1c(O)c(F)cc2c(-c3ccccc3C(=O)O)c3cc(F)c(=O)cc-3oc12)NC (stereo not shown) [SDMA-DFF]
Max Absorption [1]: 437 nm | Max Emision [1]: 525 nm | quenching efficiency in comparison with SDMA-Fl (anti-SDMA antibody; anti-SDMA antibody conjugated to BHQ10 (4 eq.)): slightly greater | fluorescence quenched by adding anti-SDMA antibody (anti-SDMA antibody): about 50%

O=C(O)c1ccccc1-c1c2ccc(=O)cc-2oc2c(CNC(Cc3cc(I)c(Oc4cc(I)c(O)c(I)c4)c(I)c3)C(=O)O)c(O)ccc12 (stereo not shown) [T4-F]
quenching efficiency ([3]; ratio of T4-F: Ab-Cy5 of about 1:1): about 70% | Percentage of fluorescence quenching, BHQ1-Ab (anti-T4 antibody; anti-T4-Mab conjugated to BHQ1): No | Percentage of fluorescence quenching, Cy5-Ab (anti-T4 antibody; anti-T4-Mab conjugated to Cy5): 31% | Percentage of fluorescence quenching, Ab (anti-T4 antibody; anti-T4-Mab without quencher): No

AEQLALEPLHRS [P1, canine NT-proBNP peptide]
Percentage Fluorescence Quenching, DFF Conjugate, Ab-BHQ10 ([5]; NT-proBNP peptide-difluorofluorescein conjugate, mAb-BHQ10, molar ratio of 1:1): 64.7% | Percentage Fluorescence Quenching, DFF Conjugate, Ab ([5]; NT-proBNP peptide-difluorofluorescein conjugate, molar ratio of 1:1): 63.3% | Percentage Fluorescence Quenching, F1 Conjugate, Ab ([5]; NT-proBNP peptide-fluorescein conjugate, Ab/Conjugate molar ratio of 1:1): 39.4% | Percentage Fluorescence Quenching, F1 Conjugate, Ab-BHQ10 ([5]; NT-proBNP peptide-fluorescein conjugate, mAb-BHQ10, molar ratio of 1:1): 40.2% | fluorescence intensity as a function of NT-proBNP peptide P1 concentration (anti-NT-proBNP-Mab; PBS, mixture of P1-Fl or P1-DFF with Ab or Ab-BHQ10): a dose response was observed | dose response of P1 peptide in serum (anti-NT-proBNP-Mab; charcoal stripped serum, P1-Fl or P1-DFF): produced a dose response

B1: full length NT-proBNP protein: canine NT-proBNP, SEQ ID NO: 14 (protein, listed as Canis familiaris)
chain: HPLGGRSPASEASEASEASGLWAVQELLGRLKDAVSELQAEQLALEPLHRSHSPAEAPEAGGTPRGVLAPHDSVLQALR
dose response of full length NT-proBNP spiked into charcoal stripped serum (anti-NT-proBNP Mab; P1-Fl/Ab or P1-DFF/Ab): dose response was also observed | fluorescence intensity as a function of full length NT-proBNP protein concentration (anti-NT-proBNP Mab; PBS, P1-Fl/Ab or P1-DFF/Ab at 1:1): a dose response was observed
